Publication PMC8305768, “Design, Synthesis and Antiparasitic Evaluation of Click Phospholipids” (Molecules, 2021)
Where a name gives a salt, the structure may show the parent alone.

Experiments:
[1] = Cytotoxicity against THP-1 macrophages (MTT); assay type: cell-based; details: human, PMA-differentiated THP-1 macrophages, read-out: Toxicity CC50 ± SD Or CC50 Interval Estimation
Description: The effect of compounds selected compounds on THP-1-derived macrophages was assessed by the colorimetric MTT assay (3-(4,5-dimethylthiazol-2-yl)-2,5-diphenyl tetrazolium bromide). Briefly, 1 × 10^5 THP-1 cells/mL were differentiated into macrophages by addition of 20 ng/mL of phorbol-myristate 13-acetate (PMA, Sigma, Saint Louis, MI, USA) for 18 h, followed by replacement with fresh medium for 24 h. Cells were incubated with 100 µL of compounds ranging from 100 to 1 µM after dilution in the RPMI complete medium containing a maximum amount of 1% DMSO. After incubation for 72 h, the medium was removed and 100 µL of 0.5 mg/mL MTT solution diluted in RPMI was added. Plates were incubated for an additional 4 h to allow viable cells to convert MTT into a purple formazan product. Solubilization of formazan crystals was achieved by the addition of 2-propanol and absorbance was read at 570 nm using a Synergy 2 Multi-Mode Reader (Biotek, Winooski, VT, USA). Cytotoxicity was evaluated by the determination of the CC50 value (drug concentration that reduced the percentage of viable cells in 50%) and calculated by non-linear regression analysis using GraphPad Prism version 8.1.1 for Windows (GraphPad Software, San Diego, CA, USA).

[2] = target: T1, CYP2C19 (Homo sapiens, UniProt P33261); test: Cytochrome P450 inhibition assay (P450-Glo) CYP2C19; assay type: in vitro ADME; details: compounds 10 μM; miltefosine 10 μM or 1 μM
T1 construct: purchased Corning Inc; host or cells: baculovirus-infected insect cells
Description: Cytochrome (CYP) P450 inhibition assay: These assays made use of microsomal preparations of CYP450 (1A2, 2C9, 2C19, 2D6 and 3A4) from baculovirus-infected insect cells (Corning Inc., Corning, NY, USA) and cytochrome c reductase (and cytochrome b5 for CYP450 3A4). For detection of CYP450 activity, the luminescence-based P450-Glo (Promega Corp., Madison, WI, USA) assay system was used that contained a luminogenic CYP450 substrate, lyophilized luciferin detection reagent and reconstitution buffer. The substrates were luciferin derivatives of CYP450-specific substrates that produce (4S)-4,5-dihydro-2-(6-hydroxybenzothiazolyl)-4-thiazolecarboxylic acid (D-luciferin) after cleavage by CYP450 (CYP450 3A4, luciferin-IPA; CYP450 2C19, luciferin-H EGE; CYP450 2C9, luciferin-H; CYP450 2D6, luciferin-ME EGE; CYP450 1A2, luciferin-1A2). CYP450 reactions were initiated by addition of the NADPH regeneration system to the enzyme–substrate mixture with the luciferin detection reagent stopping the reaction and the D-luciferin being converted to oxyluciferin under the production of light being proportional to the CYP450 activity. The CYP450 assays were performed using the Tecan Fluent liquid-handling automation platform (Tecan Group Ltd., Mannedorf, Switzerland) in the 384-well assay format. Compounds were added into an empty 384-well plate (100 nL/well in 1% v/v DMSO) using the Echo 550 Liquid Handler followed by the addition of 5 μL/well of the CYP450/substrate mixture and incubation for 30 min at 37 °C, after which the reaction was initiated by the addition of the 5 μL/well NADPH regeneration system. After a further 30-min incubation at 37 °C, the CYP450 reaction was stopped and the luciferase reaction was simultaneously initiated by addition of 10 μL/well of luciferin detection reagent, followed by an additional 30-min incubation at 37 °C. The luminescence signal was detected using an Infinite M1000 PRO plate reader (Tecan Group Ltd., Mannedorf, Switzerland). The NCs yielded 0% inhibition (1% v/v DMSO) and standard CYP450 specific inhibitors were used as positive controls, yielding 100% inhibition (CYP450 1A2, alpha-naphthoflavone; CYP450 2C9, sulfaphenazole; CYP450 2C19, troglitazone; CYP450 2D6, quinidine; CYP450 3A4, ketoconazole).
Data analysis: The screening data were obtained in triplicate and analysed using ActivityBase (IDBS, Guildford, UK), and outlier elimination in the control wells was performed using the 3-sigma method. Unless stated, dose–response experiments were performed in the 11-point format with the IC50 value, Hill slope, minimum signal and maximum signal for each dose–response curve obtained using a four-parameter logistic fit in the XE module of ActivityBase (IDBS).

[3] = test system: mitochondria of 786-0 cells; test: Mitochondrial toxicity assay (MitoTracker Red CMXRos, 786-0 cells); assay type: cell-based; details: compounds 10 μM, miltefosine 10 μM or 1 μM
Description: Mitochondrial toxicity assay: This assay made use of the MitoTracker Red CMXRos dye (Thermo Fischer Scientific, Waltham, MA, USA), which stains the mitochondria in live cells and its accumulation is dependent on the presence of a membrane potential. The renal carcinoma 786-0 cell line was used for mitochondrial toxicity screening. Cells were harvested from a 75 cm^2 flask at 80% confluency by washing once with 5 mL of rt PBS and incubating with 1 mL of 0.05% v/v trypsin/0.02% v/v EDTA for 3 min. Cells were suspended in 10 mL of prewarmed cell culture media (RPMI-1 640 supplemented with 10% v/v FCS, 100 U/mL penicillin and 100 μg/mL streptomycin) and counted using a Scepter (Merck Millipore, Darmstadt, Germany). The 786-0 cells were diluted to 75,000 cells/mL and 20 μL of this suspension added to each well of a 384-well plate. Cells were incubated for 36 h at 37 °C and 5% CO2, and compounds were added using a predilution plate. The positive control was valinomycin at a final concentration of 1 μM, with the negative control being DMSO at the same concentration. Ten microliters of compounds and controls were added to cells and incubated for 6 h at 37 °C and 5% CO2 in a humidity controlled atmosphere. After incubation, 10 μL of a 200 nM solution of MitoTracker Red CMXRos in prewarmed cell culture media was added to each well, and the 786-0 cells were incubated for an additional 45 min at 37 °C and 5% CO2. MitoTracker Red CMXRos uptake was measured using an Opera Imaging System. To facilitate automatic image analysis, the layout containing the compound area and the valinomycin and DMSO control areas were created and stored. A sublayout of five evenly dispersed fields per well were used. These settings also included a measurement height of 1 μm, which was stored in an exposure file format. By using the stored settings and files, an automated run was repeatedly created and executed. The images were transferred to a file server and uploaded into Columbus 2.4.0 (PerkinElmer, Waltham, MA. USA) using the built-in helper function and analysed therein.

T1 sequence (P33261 whole entry): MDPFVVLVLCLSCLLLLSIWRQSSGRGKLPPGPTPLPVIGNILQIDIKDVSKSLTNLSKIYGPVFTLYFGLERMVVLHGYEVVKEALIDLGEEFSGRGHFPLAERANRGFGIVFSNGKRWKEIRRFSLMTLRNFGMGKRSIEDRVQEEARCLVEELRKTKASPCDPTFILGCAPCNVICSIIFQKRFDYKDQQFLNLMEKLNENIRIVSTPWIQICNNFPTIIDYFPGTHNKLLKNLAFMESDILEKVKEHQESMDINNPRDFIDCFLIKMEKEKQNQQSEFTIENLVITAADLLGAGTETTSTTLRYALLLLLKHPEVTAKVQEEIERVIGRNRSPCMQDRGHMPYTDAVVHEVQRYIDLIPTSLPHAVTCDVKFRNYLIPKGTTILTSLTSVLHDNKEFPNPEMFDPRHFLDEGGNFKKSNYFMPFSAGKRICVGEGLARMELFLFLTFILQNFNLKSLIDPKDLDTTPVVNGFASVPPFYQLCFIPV

Row | Compound | CC50 at 72 h [1] [µM] | % inhibition ± SD at 10 μΜ CYP2C19 [2] | % toxicity ± SD at 10 μΜ Mitochondria [3]
1 | CCCCCc1cn(CCCCCCCCCCCOP(=O)([O-])OCC[N+](C)(C)C)nn1 [Compound 25, 11-(4-pentyl-1H-1,2,3-triazol-1-yl)undecyl (2-(trimethylammonio)ethyl) phosphate inner salt] | > 100 | –32.10% | 11.05%
2 | C[N+](C)(C)CCOP(=O)([O-])OCCCCCCCCCCCn1cc(CC2CCCC2)nn1 [Compound 28, 11-(4-(cyclopentylmethyl)-1H-1,2,3-triazol-1-yl)undecyl (2-(trimethylammo nio)ethyl) phosphate inner salt] | > 100 | –32.71% | 8.99%
3 | C[N+](C)(C)CCOP(=O)([O-])OCCCCCCCCCCCn1cc(CC2CCCCC2)nn1 [Compound 29, 11-(4-(cyclohexylmethyl)-1H-1,2,3-triazol-1-yl)undecyl (2-(trimethylammonio)ethyl) phosphate inner salt] | > 100 | –28.74% | 1.08%
4 | C[N+](C)(C)CCOP(=O)([O-])OCCCCCn1cc(CCCCCCCCNC(=O)OCc2ccccc2)nn1 [Compound 31, 5-(4-(8-(((benzyloxy)carbonyl)amino)octyl)-1H-1,2,3-triazol-1-yl)pentyl (2-(trimethylammonio)ethyl) phosphate inner salt] | > 100 | –2.38% | 5.07%
5 | C[N+](C)(C)CCOP(=O)([O-])OCCCCCCCCCCCn1cc(CCCCCCCCNC(=O)OCc2ccccc2)nn1 [Compound 32, 11-(4-(8-(((benzyloxy)carbonyl)amino)octyl)-1H-1,2,3-triazol-1-yl)undecyl (2-(trimethylammonio)ethyl) phosphate inner salt] | > 100 | – | –
6 | C[N+](C)(C)CCCOP(=O)([O-])OCCCCCCCCCCCn1cc(CC2CCCCC2)nn1 [Compound 33, 11-(4-(cyclohexylmethyl)-1H-1,2,3-triazol-1-yl)undecyl (3-(trimethylammonio)propyl) phosphate inner salt] | > 10 | 4.22% | -1 ± 4.35%
7 | C[N+](C)(C)CCOP(=O)([O-])OCCCCCCCCCCCn1cc(CCCCCCCCC(=O)O)nn1 [Compound 34, 11-(4-(8-carboxyoctyl)-1H-1,2,3-triazol-1-yl)undecyl (2-(trimethylammonio)ethyl) phosphate inner salt] | 50 to 100 | 4.89% | –
8 | C[N+](C)(C)CCOP(=O)([O-])OCCCCCn1cc(CCCCCCCCN)nn1 [Compound 35, 5-(4-(8-aminooctyl)-1H-1,2,3-triazol-1-yl)pentyl (2-(trimethylammonio)ethyl) phosphate inner salt] | > 100 | –3.09% | 6.58%
9 | CCCCCCCCCCc1cc(CCCCCCCCCCOP(=O)([O-])OCC[N+](C)(C)C)no1 [Compound 41, 10-(5-decylisoxazol-3-yl)decyl (2-(trimethylammonio)ethyl) phosphate inner salt] | 12.5 to 25 | 5.65% | 2.99%
10 | CCCCCCCCc1noc(CCCCCOP(=O)([O-])OCC[N+](C)(C)C)n1 [Compound 53, 5-(3-octyl-1,2,4-oxadiazol-5-yl)pentyl (2-(trimethylammonio)ethyl) phosphate inner salt] | 12.5 to 25 | –17.22% | –1.08%
11 | CCCCCCCCc1noc(CCCCCCCCCCOP(=O)([O-])OCC[N+](C)(C)C)n1 [Compound 54, 10-(3-octyl-1,2,4-oxadiazol-5-yl)decyl (2-(trimethylammonio)ethyl) phosphate inner salt] | > 10 | 10.43% | 8.56%
12 | CCCCCCCc1nnc(CCCCCCCCCCOP(=O)([O-])OCC[N+](C)(C)C)o1 [Compound 65, 10-(5-heptyl-1,3,4-oxadiazol-2-yl)decyl (2-(trimethylammonio)ethyl) phosphate inner salt] | 12.5 to 25 | –1.75% | 40.25%
13 | CCCCCCCCCCCc1nnc(CCCCCCCCCCOP(=O)([O-])OCC[N+](C)(C)C)o1 [Compound 66, 2-(trimethylammonio)ethyl (10-(5-undecyl-1,3,4-oxadiazol-2-yl)decyl) phosphate inner salt] | 25 to 50 | 23.97% | 19.78%
14 | CCCCCCCCCCCCCCCCOP(=O)([O-])OCC[N+](C)(C)C [Miltefosine, hexadecylphosphocholine, reference compound] | 15.9 ± 1.2 | 7.92% | 3.99%
